Substitutions are numbered along the chain they refer to.
Columns and labels:
[1] = target: T1, Zea mays EPSPS variant WT-FS-E (102A 302S 391G 438R) (Zea mays, UniProt O24566, E301S/E390G/G101A/V437R); assay: EPSPS substrate saturation kinetics, WT-FS-E; assay type: biochemical
T1 sequence (O24566 with tags, fused parts or gaps G101A/E301S/E390G/V437R): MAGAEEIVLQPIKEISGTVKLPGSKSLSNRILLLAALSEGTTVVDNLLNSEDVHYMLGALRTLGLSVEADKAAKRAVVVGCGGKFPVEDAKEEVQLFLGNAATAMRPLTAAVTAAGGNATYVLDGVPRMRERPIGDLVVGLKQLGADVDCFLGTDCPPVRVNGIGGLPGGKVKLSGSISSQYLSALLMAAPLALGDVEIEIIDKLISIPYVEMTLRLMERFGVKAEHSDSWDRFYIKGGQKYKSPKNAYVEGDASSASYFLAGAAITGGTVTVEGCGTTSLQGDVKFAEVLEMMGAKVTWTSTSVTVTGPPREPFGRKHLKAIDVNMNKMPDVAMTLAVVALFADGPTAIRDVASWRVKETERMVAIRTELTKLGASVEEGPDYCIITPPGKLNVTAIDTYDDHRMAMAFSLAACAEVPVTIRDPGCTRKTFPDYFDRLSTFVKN
Method: (§1) EPSPS activity was determined by quantifying the phosphate generated from the EPSPS reaction. Release of inorganic phosphate was coupled to reaction with 2-amino-6-mercapto-7-methylpurine ribonucleoside, catalyzed by purine-nucleoside phosphorylase (M R Webb, Proc. Natl. Acad. Sci. 89:4884-4887, 1992). The absorbance change that occurs was monitored at 360 nm, where the extinction is 11,200 M^−1 cm^−1, with a Spectramax plate reader (Molecular Devices). To determine kinetic parameters, the varied substrate was present at seven concentrations (the eighth being the blank, containing no substrate) ranging from 4 to 400 uM and the unvaried substrate present at saturation. Six microliters of 50-fold concentrated stock solutions of the varied substrate were placed in the wells of the 96-well assay plate and reactions were started with the addition of a mixture containing 25 mM Hepes, pH 7, 100 mM KCl, 0.3 mM 2-amino-6-mercapto-7-methylpurine ribonucleosde, 1 uM (1 unit/ml) purine-nucleoside phosphorylase (Sigma N8264) and 200 uM of the non-varied substrate. Reactions were monitored with a Spectramax plate reader. […] KI was then calculated from the following form of the Michaelis-Menten equation for competitive inhibition: KI=KM[I]/(KM app−KM) KM approximates the dissociation constant of the enzyme-substrate complex while kcat is the rate of conversion of substrate to product when the substrate concentration is saturating. kcat/KM is a widely accepted parameter for catalytic efficiency when substrate concentration is low (˜KM). […] The parameter kcat/KM×KI is used to quantify both catalytic efficiency and insensitivity and thus the overall fitness of the enzyme. […]
The vector DNA of the library was transformed into the BL21(DE3) Tuner AroA knockout strain and the cells were plated onto M9 medium containing 50 mM glyphosate. A small aliquot of the transformed cells was plated on LB, by which it was determined that 1.1×10^8 colony forming units, or 20% of the theoretical library size, were plated and screened. […]

[2] = target: T2, Zea mays EPSPS variant L-A at positions 103-107 (Zea mays, UniProt O24566, P106A/T102L); assay: EPSPS substrate saturation kinetics, maize variant 103L 107A; assay type: biochemical
T2 sequence (O24566 with tags, fused parts or gaps T102L/P106A): T1 sequence (O24566 with tags, fused parts or gaps G101A/E301S/E390G/V437R) with A102G, T103L, P107A, S302E, G391E, R438V
Method: as §1, with “reader. The Michaelis-Menten kinetics protocol of the Spectramax software was customized for the substrate concentrations used. The software returns values of KM and Vmax using the Lineweaver-Burke transformation of the Michaelis-Menten equation. To determine kcat, Vmax (uM/min) was divided by the enzyme concentration (uM).” for “reader.”

[3] = PEP as substrate, glyphosate as inhibitor

C=C(OP(=O)(O)O)C(=O)O [PEP, phosphoenolpyruvate]
improvement in KM for PEP ([1]; compared to G102A alone): 2 fold
kcat ([2]; PEP varied): 125

O=C(O)CNCP(=O)(O)O [glyphosate, N-phosphonomethylglycine]
Ki [1]: 1150 µM
(kcat/KM)*KI [1, 3]: 2763
Ki [2]: 463 µM
(kcat/KM)*KI [2, 3]: 1143

From US11549123B2, “Plant EPSP synthases and methods of use” (PIONEER HI-BRED INTERNATIONAL, INC., priority 2015, dated 2023)
